This is an account of results in patent US9023789B2, “Amylin analogs and pharmaceutical compositions thereof” (Novo Nordisk A/S, priority 2012, dated 2015).

For experiment [1], the target named is T1, human amylin 3(a) receptor (human calcitonin receptor + RAMP-3) in BHK570 cells (Homo sapiens, UniProt O60896+P30988).
T1 construct: expressed in transfected cells
Description: ASSAY (II)a functional assay, human amylin receptor (CRE luciferase). It counts as cell-based. Put shortly: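 BHK CRE-luc cells, calcitonin (a) receptor ± RAMP-3 (amylin 3(a)); overnight seeding, 37° C/5% CO2. 3 h ligand exposure, DMEM/10% FBS/10 mM Hepes pH 7.4. LucLite 30 min RT; luminescence (SPC).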

For experiment [2], the target named is T2, human amylin receptor (membranes from Amylin 3(a)/CRE-luc cells) (Homo sapiens, UniProt O60896+P30988).
T2 construct: expressed in transfected cells
T2 sequence (P30988 25-474): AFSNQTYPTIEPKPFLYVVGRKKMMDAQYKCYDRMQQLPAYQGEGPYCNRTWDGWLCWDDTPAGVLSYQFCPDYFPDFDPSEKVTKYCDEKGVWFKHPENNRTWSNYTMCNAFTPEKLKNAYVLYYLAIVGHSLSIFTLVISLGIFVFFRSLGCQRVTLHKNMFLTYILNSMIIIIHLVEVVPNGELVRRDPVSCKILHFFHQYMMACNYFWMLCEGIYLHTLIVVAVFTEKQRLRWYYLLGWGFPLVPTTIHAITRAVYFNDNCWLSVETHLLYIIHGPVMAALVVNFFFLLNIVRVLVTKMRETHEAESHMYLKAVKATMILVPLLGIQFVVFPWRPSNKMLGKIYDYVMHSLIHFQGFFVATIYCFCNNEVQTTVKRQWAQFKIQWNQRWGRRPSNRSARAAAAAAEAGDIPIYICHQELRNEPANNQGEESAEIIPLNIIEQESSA
T2 sequence (O60896 24-148 partner): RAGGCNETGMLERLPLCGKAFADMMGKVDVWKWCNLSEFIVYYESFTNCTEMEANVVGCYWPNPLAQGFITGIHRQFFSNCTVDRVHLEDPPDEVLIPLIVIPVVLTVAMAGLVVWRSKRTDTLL
Description: ASSAY (V) binding to the human amylin receptor (SPA, 125I-rat amylin).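 Note: competition binding of cell membranes (35 ng/µL) mixed with SPA beads in 384-well plates at 40 µL total volume, read by scintillation counting.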

For experiment [3], the target named is T3, rat calcitonin receptor (Rattus norvegicus, UniProt P32214).
T3 construct: expressed in transfected cells; host or cells: BHK tk'ts 13 (transient, FuGENE 6), membranes
T3 sequence (P32214 25-479 isoform P32214-2 limits assumed): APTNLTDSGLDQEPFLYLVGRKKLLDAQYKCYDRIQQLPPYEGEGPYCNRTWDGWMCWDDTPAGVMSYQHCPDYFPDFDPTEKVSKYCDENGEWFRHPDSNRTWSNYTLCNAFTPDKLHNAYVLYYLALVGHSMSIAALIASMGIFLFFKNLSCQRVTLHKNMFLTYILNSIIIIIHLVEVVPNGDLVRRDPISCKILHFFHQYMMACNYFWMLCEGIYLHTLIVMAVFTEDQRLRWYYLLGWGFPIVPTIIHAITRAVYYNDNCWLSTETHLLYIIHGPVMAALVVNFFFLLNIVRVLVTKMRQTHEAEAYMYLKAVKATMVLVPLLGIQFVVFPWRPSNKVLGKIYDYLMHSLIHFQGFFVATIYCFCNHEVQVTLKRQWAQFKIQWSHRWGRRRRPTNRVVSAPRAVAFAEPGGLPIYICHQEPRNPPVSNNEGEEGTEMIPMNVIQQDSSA
In words: ASSAY (VIII) binding to the rat calcitonin receptor. To be noted: Table 7, read-out: rCTR bind IC50. Put shortly: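 Membranes were prepared from BHK tk′ts 13 cells transiently transfected with rat calcitonin receptor. Cells were grown in DMEM with 10% FBS and harvested approximately 48 hours after transfection.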

Setting [4] is: hCTR funct. EC50 / hAmylin-R funct. EC50.
Where [5] appears, read: hCTR funct. EC50 over hAmylin-R funct. EC50.
The mark [6] stands for this setting: human amylin receptor functional potency, assay (II), read-out: hAmylin-R funct. EC50.
[7] abbreviates: human functional selectivity: hCTR funct. EC50 / hAmylin-R funct. EC50.
[8] abbreviates: Table 4, read-out: hAmylin-R bind IC50.
Setting [9] is: Table 5, selectivity, hCTR bind IC50 / hAmylin-R bind IC50.
[10] abbreviates: Table 7, human binding selectivity, included for comparison.
[11] abbreviates: Table 7a (preferred compounds), human binding selectivity, included for comparison.
The mark [12] stands for this setting: hCTR funct. EC50 divided by hAmylin-R funct. EC50.
Where [13] appears, read: Table 5a, selectivity, hCTR bind IC50 / hAmylin-R bind IC50.
The mark [14] stands for this setting: Table 5b, selectivity, hCTR bind IC50 / hAmylin-R bind IC50.
The mark [15] stands for this setting: Table 5c, selectivity, hCTR bind IC50 / hAmylin-R bind IC50.
The mark [16] stands for this setting: ratio of human calcitonin receptor binding IC50 to human amylin receptor binding IC50.

Where two headings read alike, the source gives them in different places. Numbered stars: 1 amine (or outer) side, 2 acyl side, 3 side chain; on linkers, the order of the positions; unused ones are H or OH. Bridge positions count the residues as written; N and C are the ends. Side chains are listed from the residue outwards. Peptide text beside a SMILES is read from it. * marks the point of attachment. C20 diacid = O=C(O)CCCCCCCCCCCCCCCCCCC(=O)*; γGlu = O=C(O)[C@H](CCC(=O)[*:2])N[*:1]; AEEA = NCCOCCOCC(=O)O

For `CC[C@H](C)[C@H](NC(=O)[C@H](C)NC(=O)CNC(=O)[C@H](Cc1ccccc1)NC(=O)[C@H](CC(N)=O)NC(=O)[C@@H]1CCCN1C(=O)[C@H](CO)NC(=O)[C@H](CO)NC(=O)[C@H](Cc1c[nH]cn1)NC(=O)[C@H](CCCNC(=N)N)NC(=O)[C@H](CC(C)C)NC(=O)[C@H](Cc1ccccc1)NC(=O)[C@H](CCC(=O)O)NC(=O)[C@H](C)NC(=O)[C@H](CC(C)C)NC(=O)[C@H](CCCNC(=N)N)NC(=O)[C@H](CCC(N)=O)NC(=O)[C@@H](NC(=O)[C@H](C)NC(=O)[C@@H]1CSSC[C@H](NC(=O)[C@H](CCCCN)NC(=O)CC[C@H](NC(=O)CCCCCCCCCCCCCCCCCCC(=O)O)C(=O)O)C(=O)N[C@@H](CC(N)=O)C(=O)N[C@@H]([C@@H](C)O)C(=O)N[C@@H](C)C(=O)N[C@@H]([C@@H](C)O)C(=O)N1)[C@@H](C)O)C(=O)N[C@@H](CC(C)C)C(=O)N1CCC[C@H]1C(=O)N[C@@H](CO)C(=O)N[C@H](C(=O)N[C@@H](CC(N)=O)C(=O)N[C@H](C(=O)NCC(=O)N[C@@H](CO)C(=O)N[C@@H](CCC(=O)O)C(=O)N[C@H](C(=O)N[C@@H](Cc1ccc(O)cc1)C(N)=O)[C@@H](C)O)C(C)C)[C@@H](C)O` [Example 33] ({C20 diacid-γGlu}-KCNTATCATQRLAEFLRHSSPNFGAILPSTNVGSETY-NH2; disulfide 2-7), the “Ratio hCT/hAmylin funct.” value in experiment [1] (setting [4]), in experiment [1] (setting [5]) and in experiment [1] (setting [7]) was 2.2 each time. Moreover, the EC50 (usually the concentration giving half of the maximal effect) in experiment [1] (setting [6]) worked out at 0.243 nM. Besides, the results for the 50% inhibitory concentration (IC50) in experiment [2] (setting [8]) and in experiment [3] were 0.915 nM and 28.9 nM, respectively. Besides, the “Ratio hCT/hAmylin binding” value in experiment [2] (setting [9]), in experiment [2] (setting [10]) and in experiment [2] (setting [11]) was 3.9 each time.
For `CC[C@H](C)[C@H](NC(=O)[C@H](C)NC(=O)CNC(=O)[C@H](Cc1ccccc1)NC(=O)[C@H](CC(N)=O)NC(=O)[C@@H]1CCCN1C(=O)[C@H](CO)NC(=O)[C@H](CO)NC(=O)[C@H](Cc1c[nH]cn1)NC(=O)[C@H](CCCNC(=N)N)NC(=O)[C@H](CC(C)C)NC(=O)[C@H](Cc1ccccc1)NC(=O)[C@H](C)NC(=O)[C@H](C)NC(=O)[C@H](CC(C)C)NC(=O)[C@H](CCCNC(=N)N)NC(=O)[C@H](CCC(N)=O)NC(=O)[C@@H](NC(=O)[C@H](C)NC(=O)[C@@H]1CSSC[C@H](NC(=O)[C@H](CCCNC(=N)N)NC(=O)CNC(=O)CC[C@H](NC(=O)CCCCCCCCCCCCCCCCCCC(=O)O)C(=O)O)C(=O)N[C@@H](CC(N)=O)C(=O)N[C@@H]([C@@H](C)O)C(=O)N[C@@H](C)C(=O)N[C@@H]([C@@H](C)O)C(=O)N1)[C@@H](C)O)C(=O)N1CCC[C@H]1C(=O)N[C@@H](CO)C(=O)N[C@@H](CO)C(=O)N[C@H](C(=O)N[C@@H](CC(N)=O)C(=O)N[C@H](C(=O)NCC(=O)N1CCC[C@H]1C(=O)N[C@@H](CC(N)=O)C(=O)N[C@H](C(=O)N[C@@H](Cc1ccc(O)cc1)C(N)=O)[C@@H](C)O)C(C)C)[C@@H](C)O` [Example 103] ({C20 diacid-γGlu}-GRCNTATCATQRLAAFLRHSSPNFGAIPSSTNVGPNTY-NH2; disulfide 3-8), the EC50 in experiment [1] amounted to 0.07 nM. Moreover, the “Ratio hCT/hAmylin funct.” value in experiment [1] (setting [4]), in experiment [1] (setting [12]), in experiment [1] (setting [5]) and in experiment [1] (setting [7]) was 2.1 throughout. The IC50 (as a rule, the point on the concentration scale where inhibition reaches its midpoint) in experiment [2] came to 0.114 nM; in experiment [3], 56.3 nM. In addition, the “Ratio hCT/hAmylin binding” value in experiment [2] (setting [9]), in experiment [2] (setting [13]), in experiment [2] (setting [14]), in experiment [2] (setting [15]), in experiment [2] (setting [10]) and in experiment [2] (setting [11]) was 26.5 each time. For the same compound, in experiment [2] (setting [16]), the “Ratio hCT/hAmylin binding” value was 26.5.
Take `CC[C@H](C)[C@H](NC(=O)[C@H](C)NC(=O)CNC(=O)[C@H](Cc1ccccc1)NC(=O)[C@H](CC(N)=O)NC(=O)[C@@H]1CCCN1C(=O)[C@H](CO)NC(=O)[C@H](CO)NC(=O)[C@H](Cc1c[nH]cn1)NC(=O)[C@H](CCCNC(=N)N)NC(=O)[C@H](CC(C)C)NC(=O)[C@H](Cc1ccccc1)NC(=O)[C@H](CCC(=O)O)NC(=O)[C@H](C)NC(=O)[C@H](CC(C)C)NC(=O)[C@H](CCCNC(=N)N)NC(=O)[C@H](CCC(N)=O)NC(=O)[C@@H](NC(=O)[C@H](C)NC(=O)[C@@H]1CSSC[C@H](NC(=O)[C@@H](N)CCCCNC(=O)CC[C@H](NC(=O)CC[C@H](NC(=O)CCCCCCCCCCCCCCCCCCC(=O)O)C(=O)O)C(=O)O)C(=O)N[C@@H](CC(N)=O)C(=O)N[C@@H]([C@@H](C)O)C(=O)N[C@@H](C)C(=O)N[C@@H]([C@@H](C)O)C(=O)N1)[C@@H](C)O)C(=O)N1CCC[C@H]1C(=O)N[C@@H](CO)C(=O)N[C@@H](CO)C(=O)N[C@H](C(=O)N[C@@H](CC(N)=O)C(=O)N[C@H](C(=O)NCC(=O)N1CCC[C@H]1C(=O)N[C@@H](CCCNC(=N)N)C(=O)N[C@H](C(=O)N[C@@H](Cc1ccc(O)cc1)C(N)=O)[C@@H](C)O)C(C)C)[C@@H](C)O` [Example 110] (H-K([γGlu-γGlu-C20 diacid])CNTATCATQRLAEFLRHSSPNFGAIPSSTNVGPRTY-NH2; disulfide 2-7): the “Ratio hCT/hAmylin funct.” value in experiment [1] (setting [12]), in experiment [1] (setting [5]) and in experiment [1] (setting [7]) was 29.3 in each case. The EC50 in experiment [1] (setting [6]) was 0.278 nM. The IC50 in experiment [2] (setting [8]) was 0.326 nM; in experiment [3] it was 38.3 nM. The “Ratio hCT/hAmylin binding” value in experiment [2] (setting [9]), in experiment [2] (setting [13]), in experiment [2] (setting [14]), in experiment [2] (setting [15]), in experiment [2] (setting [10]) and in experiment [2] (setting [11]) was 53.6 each time. Further, in experiment [2] (setting [16]), the “Ratio hCT/hAmylin binding” value was 53.6.
Turning to `CC[C@H](C)[C@H](NC(=O)[C@H](C)NC(=O)CNC(=O)[C@H](Cc1ccccc1)NC(=O)[C@H](CC(N)=O)NC(=O)[C@@H]1CCCN1C(=O)[C@H](CO)NC(=O)[C@H](CO)NC(=O)[C@H](Cc1c[nH]cn1)NC(=O)[C@H](CCCNC(=N)N)NC(=O)[C@H](CC(C)C)NC(=O)[C@H](Cc1ccccc1)NC(=O)[C@H](CC(N)=O)NC(=O)[C@H](C)NC(=O)[C@H](CC(C)C)NC(=O)[C@H](CCCNC(=N)N)NC(=O)[C@H](CCC(N)=O)NC(=O)[C@@H](NC(=O)[C@H](C)NC(=O)[C@@H]1CSSC[C@H](NC(=O)[C@H](CCCNC(=N)N)NC(=O)[C@@H](N)CCCCNC(=O)COCCOCCNC(=O)CC[C@H](NC(=O)CCCCCCCCCCCCCCCCCCC(=O)O)C(=O)O)C(=O)N[C@@H](CC(N)=O)C(=O)N[C@@H]([C@@H](C)O)C(=O)N[C@@H](C)C(=O)N[C@@H]([C@@H](C)O)C(=O)N1)[C@@H](C)O)C(=O)N1CCC[C@H]1C(=O)N[C@@H](CO)C(=O)N[C@@H](CO)C(=O)N[C@H](C(=O)N[C@@H](CC(N)=O)C(=O)N[C@H](C(=O)NCC(=O)N[C@@H](CO)C(=O)N[C@@H](Cc1c[nH]cn1)C(=O)N[C@H](C(=O)N[C@@H](Cc1ccc(O)cc1)C(N)=O)[C@@H](C)O)C(C)C)[C@@H](C)O` [Example 45] (H-K([AEEA-γGlu-C20 diacid])RCNTATCATQRLANFLRHSSPNFGAIPSSTNVGSHTY-NH2; disulfide 3-8 (inferred)), the “Ratio hCT/hAmylin funct.” value in experiment [1] (setting [12]), in experiment [1] (setting [5]) and in experiment [1] (setting [7]) was 17.0 in each case. Besides, the “Ratio hCT/hAmylin binding” value in experiment [2] (setting [9]), in experiment [2] (setting [13]), in experiment [2] (setting [14]), in experiment [2] (setting [15]), in experiment [2] (setting [10]) and in experiment [2] (setting [11]) was 26.8 each time. For the same compound, in experiment [2] (setting [16]), the “Ratio hCT/hAmylin binding” value was 26.8. In experiment [3], the IC50 is 41.8 nM.
